Results on five compounds are retold here after article PMC8124549, “Antidepressants Differentially Regulate Intracellular Signaling from α1-Adrenergic Receptor Subtypes In Vitro” (International Journal of Molecular Sciences, 2021).

Read-outs that look alike come from different tables or passages of the source. A value given as a limit tells only on which side of the number the result lay.

Test [1] has as its target T1, α1A-AR (Homo sapiens, UniProt P35348).
T1 construct: gene ADRA1A; human receptor from pcDNA3.1+ plasmid, stably expressed in rat PC12 cells
T1 sequence (P35348 1-466): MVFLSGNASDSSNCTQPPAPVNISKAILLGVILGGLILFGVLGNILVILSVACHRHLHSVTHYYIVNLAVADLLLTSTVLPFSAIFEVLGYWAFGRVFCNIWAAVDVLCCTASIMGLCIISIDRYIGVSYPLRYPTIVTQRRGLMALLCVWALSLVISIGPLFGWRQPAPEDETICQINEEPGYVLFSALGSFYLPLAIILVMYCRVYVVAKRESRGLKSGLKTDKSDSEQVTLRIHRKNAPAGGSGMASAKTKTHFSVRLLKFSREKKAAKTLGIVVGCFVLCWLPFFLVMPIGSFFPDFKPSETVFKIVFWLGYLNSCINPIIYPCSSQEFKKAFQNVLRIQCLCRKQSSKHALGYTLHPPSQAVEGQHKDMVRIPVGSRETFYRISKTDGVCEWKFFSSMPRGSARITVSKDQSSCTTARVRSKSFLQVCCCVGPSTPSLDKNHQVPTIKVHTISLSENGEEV
The experiment in a line: IP-One HTRF inositol phosphate accumulation, PC12 cells. In kind it is cell-based.

Test [2] deals with T2, α1B-AR (Homo sapiens, UniProt P35368).
T2 construct: gene ADRA1B; human receptor from pcDNA3.1+ plasmid, stably expressed in rat PC12 cells
T2 sequence (P35368 1-520): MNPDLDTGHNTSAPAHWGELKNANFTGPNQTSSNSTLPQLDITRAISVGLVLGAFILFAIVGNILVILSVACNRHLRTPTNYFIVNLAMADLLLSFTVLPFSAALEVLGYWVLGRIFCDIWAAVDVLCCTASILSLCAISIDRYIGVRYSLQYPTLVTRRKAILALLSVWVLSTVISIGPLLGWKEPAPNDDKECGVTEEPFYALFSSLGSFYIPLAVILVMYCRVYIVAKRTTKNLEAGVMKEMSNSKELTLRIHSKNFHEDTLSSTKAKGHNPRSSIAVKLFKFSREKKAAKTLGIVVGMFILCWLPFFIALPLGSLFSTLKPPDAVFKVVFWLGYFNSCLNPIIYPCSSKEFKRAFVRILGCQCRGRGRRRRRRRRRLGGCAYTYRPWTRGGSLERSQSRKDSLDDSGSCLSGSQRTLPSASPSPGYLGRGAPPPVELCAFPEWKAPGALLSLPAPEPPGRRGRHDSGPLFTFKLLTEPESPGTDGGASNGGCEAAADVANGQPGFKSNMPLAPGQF
Described as above. The test is classed as cell-based.

On to `COc1cccc(OC)c1OCCNCC1COc2ccccc2O1` (stereo not drawn) [WB4101], for which the IC50 in test [1] (antagonism of noradrenaline at EC90, 37 °C, pH 7) was 1 × 10^−8.6 M. As for `CN(C)CCCC1(c2ccc(F)cc2)OCc2cc(C#N)ccc21` (stereo not drawn) [citalopram], the IC50 in test [2] was over 100 µM. On the same count and under the same terms, under `CNCCCN1c2ccccc2CCc2ccccc21` [desipramine] stands 7.94 µM; under `CNCCC(Oc1ccc(C(F)(F)F)cc1)c1ccccc1` (stereo not drawn) [fluoxetine], over 100 µM. For `CN(C)CCCN1c2ccccc2CCc2ccccc21` [imipramine], the IC50 in test [2] was 8.13 µM; in test [1] (read-out: α1A (converted)), 0.468 µM.
